Patent US20260137697A1, “THIAZOLO[5,4-D]PYRIMIDINE COMPOUNDS, COMPOSITIONS COMPRISING THEM AND USES THEREOF” (University de Montreal, priority 2022, published 2026)
pIC50: −log10 of the molar value.

Columns and labels:
CRAF = biological target: T1, CRAF (Homo sapiens, UniProt P04049); assay: CRAF kinase activity assay (ADP-Glo); type: biochemical; conditions: Table 3; 10 μM ATP, kinase-dead MEK1 substrate
T1 construct: fused on or other part: GST tag (N-terminal according to the vendor's product)
T1 sequence (P04049 whole entry Y340E/Y341E, form open, the tested form may be a part): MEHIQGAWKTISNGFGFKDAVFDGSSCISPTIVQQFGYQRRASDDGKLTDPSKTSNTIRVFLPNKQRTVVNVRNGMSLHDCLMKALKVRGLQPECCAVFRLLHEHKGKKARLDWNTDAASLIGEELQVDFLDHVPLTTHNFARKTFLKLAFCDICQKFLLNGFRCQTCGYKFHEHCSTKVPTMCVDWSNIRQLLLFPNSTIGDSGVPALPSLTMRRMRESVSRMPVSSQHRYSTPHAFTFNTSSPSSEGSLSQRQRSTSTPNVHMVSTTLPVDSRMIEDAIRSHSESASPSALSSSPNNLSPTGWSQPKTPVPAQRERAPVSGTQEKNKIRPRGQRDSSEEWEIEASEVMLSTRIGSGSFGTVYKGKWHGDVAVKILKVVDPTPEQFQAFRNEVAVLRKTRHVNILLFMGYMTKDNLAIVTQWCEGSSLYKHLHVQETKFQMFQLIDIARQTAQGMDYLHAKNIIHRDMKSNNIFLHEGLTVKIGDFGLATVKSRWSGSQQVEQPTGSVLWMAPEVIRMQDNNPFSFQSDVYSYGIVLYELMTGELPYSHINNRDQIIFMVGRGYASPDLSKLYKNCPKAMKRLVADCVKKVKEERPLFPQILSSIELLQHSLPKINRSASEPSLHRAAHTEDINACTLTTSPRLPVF
Procedure: (§1) Compound preparation: solid samples of each substance in 1dram vials were suspended in DMSO (Fisher Scientific) at a stock concentration of 20 mM. Stocks were kept at −20° C. and protected from light. If solubility of the compound at 20 mM appeared to be an issue, the initial concentration of the DMSO stock was changed to 10 mM or 5 mM.
(§2) In vitro enzymatic reactions were used for evaluating compounds intrinsic activity against BRAF, CRAF and ARAF. For BRAF and CRAF, 0.375 nM of purified GST-tagged kinases (cat. No. B4062-10UG and cat. No. R1656-10UG respectively from Millipore Sigma) were incubated with 75 nM of kinase-dead MEK1 substrate (cat. No. 40075; BPS Bioscience) in the presence of 10 μM of Ultrapure ATP (cat. No. V9102; Promega; part V915A) with and without the test compound in a buffer containing 50 mM HEPES pH 7.5, 10 mM MgCl2, 1 mM EDTA, 0.01% Brij-35 and 2 mM DTT. Separate reactions were performed with the MEK1 substrate and ATP as a blank control. ARAF kinase reactions were rigorously the same with the exception that kinase concentration was raised to 3.75 nM (cat. No. 1768-0000-1; Reaction Biology).
(§3) For compound treatment, 5 μL/well of test substance solution are placed in a 384-well proxyplate (Perkin Elmer) and mixed with 2× concentrated kinase reactions. The dilution series is selected so that nine concentrations cover a range from 100 nM to 0.01 nM. […] The final concentration of DMSO in the assay is set at 0.05%.
(§4) BRAF and CRAF kinase reactions were carried out for a total of 2 hours at 30° C. and then stopped by 1/2 dilution in ADP-Glo Reagent (cat. No. V9102; Promega; part V912C). Reactions were then incubated for 1 h at room temperature before addition of one volume of Kinase Detection Reagent (cat. No. V9102; Promega; part V917A). Plates were then equilibrated at room temperature for 30 minutes before detection of luminescence on a Synergy Neo2 plate reader (Biotek). The effect of each compound dilution on BRAF and CRAF kinase activity was expressed as % inhibition and calculated as follows. First, the internal 100% inhibition control (average of luminescence in kinase reactions comprising kinase dead MEK1 substrate alone) was subtracted from each data point. The average of DMSO (vehicle) controls (set as 0% inhibition) was established and used to calculate % inhibition:
(§5) IC50 values were obtained by plotting the kinase inhibition values and fitting the dose-activity curves using a log(agonist) versus response—variable slope (four parameters) function using either GraphPadPrism (V7.0) or Dotmatics Screening Ultra platform. Standards included in the ARAF kinase assay were Belvarafenib (MedChem Express cat. No. HY-109080; CAS No. 1446113-23-0), LXH254 (MedChem Express cat. No. HY-112089; CAS No. 1800398-38-2) and BGB283 (cat. No. HY-18957; CAS No. 1446090-79-4).

pERK, HCT116 cells = assay: Phospho-ERK inhibition, AlphaLISA p-ERK 1/2, HCT-116; type: cell-based, human; conditions: Table 3; for pIC50: HCT116 cells (KRAS G13D), 1 h treatment; for HCT116 pERK (Ymin %): lowest % inhibition value of the pERK IC50 curve, above −20% = no paradoxical induction
Procedure: All cancer cell lines (A375, A101D, A2058, RKO, HT29 SK-MEL 30, IPC298, HepG2, HCT-116, Lovo, SW620, SW480, NCI-H358, NCI-H2122, Calu-6, NCIH2087, NCIH1755, NCIH1666 and Mewo) were obtained from ATCC and cultured in RPM1-1640 medium (Gibco) supplemented with 5% heat inactivated fetal bovine serum (FBS, Wisent) at 37° C. under 5% CO2. Cells were maintained in T175 flasks (Greiner). They were passaged by removing the culture medium, washing once in 10 mL of room temperature Phosphate Buffered Saline (PBS; Wisent) and incubating at 37° C. with 2 mL of 0.05% Trypsin (Thermo-Fisher). Trypsin was then inactivated by adding complete growth medium and the cells were then replated in a T175 culture dish at the appropriate dilution. All cell lines were routinely tested for mycoplasma contamination. Tissue type and mutational status of each cell line can be found in Table B.
(c) Measurement of Phospho-ERK Inhibition in Cultivated Human Cancer Cell Lines by the AlphaLISA® SureFire® Ultra™ p-ERK 1/2 (Thr2O2/Tyr204)
AlphaLISA® SureFire® Ultra™ p-ERK 1/2 (Thr202/Tyr204) analysis was conducted on cells plated in 100 μL of complete RPMI-1640 growth medium in 96-well flat-bottomed transparent dishes (Costar) at a density indicated in Table C. Cells were maintained overnight at 37° C. under 5% CO2 before treatment with compounds' dilution series for one hour. The cell density in cells/cm^2 corresponds to cell number divided by the area of one well of a 96-well plate (0.143 cm^2).
In a dilution series 100 μL/well of test substance dilution prepared in complete RPMI-1640 growth media was added to the cells. The dilution series is selected so that ten concentrations cover a range from 10 μM to 0.33 nM. If necessary, the initial concentration of 10 μM is increased to 100 μM or lowered to 1 μM (as in the case of A375 and H1666 cells, which are generally more sensitive to the compounds) and further dilution is carried out accordingly. The final concentration of DMSO in the assay is set at 0.5%.
After treatment, media was removed, and cells were lysed in 50 μL of 1× AlphaScreen Ultra Lysis Buffer (Perkin Elmer). The AlphaLISA® SureFire® Ultra™ p-ERK 1/2 (Thr202/Tyr204) (PerkinElmer) reactions were performed with 5 μL of cell lysate according to the manufacturer's specifications in 384-well proxyplates (Perkin Elmer) followed by overnight incubation of the reactions at room temperature in a humidified chamber. After completion of the reactions, the signals were recorded on an EnVision plate reader (Perkin Elmer) using built in AlphaLISA® settings.
The effect of each compound dilution on the pERK signal was expressed in % inhibition and calculated as follows. An internal 100% inhibition control (1 μM trametinib, cat. No. HY-10999; MedChem Express; CAS No. 871700-17-3) was included in each plate and used as a measure of pERK background. First, the value obtained for trametinib was subtracted from each data point. The average of DMSO (vehicle) controls (set as 0% inhibition) was established and used to calculate % inhibition:
The ability of each compound to inhibit pERK signal was expressed as an IC50 value obtained by plotting the inhibition values for each data point of a dilution series and fitting the obtained curves using a log(agonist) versus response—variable slope (four parameters) function using GraphPadPrism (V7.0) or Dotmatics Screening Ultra platform.
When present, paradoxical pERK induction is inferred from the negative % inhibition values observed in the pERK IC50 curves of a compound.

BRAF = biological target: T2, BRAF (Homo sapiens, UniProt P15056); assay: BRAF kinase activity assay (ADP-Glo); type: biochemical; conditions: Table 3; 10 μM ATP, kinase-dead MEK1 substrate
T2 construct: GST; purchased Millipore Sigma B4062-10UG
T2 sequence (P15056 whole entry): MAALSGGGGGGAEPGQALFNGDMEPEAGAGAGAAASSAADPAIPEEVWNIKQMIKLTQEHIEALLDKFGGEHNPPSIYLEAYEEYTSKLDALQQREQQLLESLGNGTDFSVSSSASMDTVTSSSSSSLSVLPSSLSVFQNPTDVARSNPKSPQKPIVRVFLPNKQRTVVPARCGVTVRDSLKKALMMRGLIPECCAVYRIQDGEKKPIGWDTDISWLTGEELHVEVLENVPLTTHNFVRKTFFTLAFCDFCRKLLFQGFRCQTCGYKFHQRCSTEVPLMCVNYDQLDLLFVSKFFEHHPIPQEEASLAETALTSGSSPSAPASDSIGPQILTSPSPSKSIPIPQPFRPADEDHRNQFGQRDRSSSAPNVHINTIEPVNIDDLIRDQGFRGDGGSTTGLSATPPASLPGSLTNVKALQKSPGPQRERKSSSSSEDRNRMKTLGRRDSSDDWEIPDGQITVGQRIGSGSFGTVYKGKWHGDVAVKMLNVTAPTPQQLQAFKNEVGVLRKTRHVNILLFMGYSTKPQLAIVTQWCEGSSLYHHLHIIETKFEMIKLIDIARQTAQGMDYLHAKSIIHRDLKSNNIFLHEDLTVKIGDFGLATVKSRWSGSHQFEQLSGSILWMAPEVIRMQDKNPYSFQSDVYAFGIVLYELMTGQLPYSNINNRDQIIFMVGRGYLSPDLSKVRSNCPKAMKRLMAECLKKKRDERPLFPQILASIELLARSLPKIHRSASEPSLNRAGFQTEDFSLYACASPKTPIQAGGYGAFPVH
Procedure: as §1, §2, §3, §4, §5

| pIC50 (CRAF) | pIC50 (pERK, HCT116 cells; Homo sapiens, HCT-116) | pIC50 (BRAF) | pIC50 (pERK, HCT116 cells) | SMILES | HCT116 pERK (Ymin %) (pERK, HCT116 cells) [%] |
| --- | --- | --- | --- | --- | --- |
| < 7.30 | 5.00 to 6.00 | < 8.00 |  | Cc1c(F)cccc1S(=O)(=O)Nc1ccc(F)c(Nc2ncnc3sc(-n4nc(C(=O)N(C)Cc5cccnc5)c5ccccc54)nc23)c1F [Example 23] |  |
| 7.30 to 8.00 |  | < 8.00 | 6.00 to 6.30 | Cc1c(F)cccc1S(=O)(=O)Nc1ccc(F)c(Nc2ncnc3sc(-n4nc(C(=O)NCc5cccnc5)c5ccccc54)nc23)c1F [Example 24] | 2 |
| < 7.30 |  | < 8.00 | 5.00 to 6.00 | Cc1c(F)cccc1S(=O)(=O)Nc1ccc(F)c(Nc2ncnc3sc(-n4nc(C(=O)N(C)CCc5ccccn5)c5ccccc54)nc23)c1F [Example 25] | 2 |
| < 7.30 |  | < 8.00 | 5.00 to 6.00 | COCCN(C)C(=O)c1nn(-c2nc3c(Nc4c(F)ccc(NS(=O)(=O)c5cccc(F)c5C)c4F)ncnc3s2)c2ccccc12 [Example 26] | −13 |
| 7.30 to 8.00 |  | 8.00 to 9.00 | 6.00 to 6.30 | Cc1c(F)cccc1S(=O)(=O)Nc1ccc(F)c(Nc2ncnc3sc(-n4nc(C(=O)N(C)CCN(C)C)c5ccccc54)nc23)c1F [Example 27] | −3 |
| 7.30 to 8.00 | > 6.30 | 8.00 to 9.00 |  | Cc1c(F)cccc1S(=O)(=O)Nc1ccc(F)c(Nc2ncnc3sc(-n4cc(C(=O)N(C)CCc5ccccn5)c5ccccc54)nc23)c1F [Example 28] |  |
| < 7.30 |  | < 8.00 | 6.00 to 6.30 | Cc1c(F)cccc1S(=O)(=O)Nc1ccc(F)c(Nc2ncnc3sc(-n4cc(C(=O)NCc5cccnc5)c5ccccc54)nc23)c1F [Example 29] | 5 |
| 7.30 to 8.00 |  | 8.00 to 9.00 | > 6.30 | Cc1c(F)cccc1S(=O)(=O)Nc1ccc(F)c(Nc2ncnc3sc(-n4cc(C(=O)N(C)Cc5ccncc5)c5ccccc54)nc23)c1F [Example 30] | −3 |
| > 8.00 |  | 8.00 to 9.00 | 6.00 to 6.30 | Cc1c(F)cccc1S(=O)(=O)Nc1ccc(F)c(Nc2ncnc3sc(-n4cc(C(=O)N(C)Cc5cccnc5)c5ccccc54)nc23)c1F [Example 31] | 7 |
| 7.30 to 8.00 |  | 8.00 to 9.00 | 5.00 to 6.00 | Cc1c(F)cccc1S(=O)(=O)Nc1ccc(F)c(Nc2ncnc3sc(-n4nc(C(=O)N5CCC(CO)C5)c5ccccc54)nc23)c1F (stereo not shown) [Example 32] | −13 |
| > 8.00 |  | > 9.00 | > 6.30 | Cc1c(F)cccc1S(=O)(=O)Nc1ccc(F)c(Nc2ncnc3sc(-n4cc(C(=O)N5CCC(CO)C5)c5ccccc54)nc23)c1F (stereo not shown) [Example 33] | −7 |
| 7.30 to 8.00 |  | < 8.00 | 5.00 to 6.00 | Cc1c(F)cccc1S(=O)(=O)Nc1ccc(F)c(Nc2ncnc3sc(-n4nc(C(=O)N5C6CCC5COC6)c5ccccc54)nc23)c1F [Example 34] | −13 |
| > 8.00 |  | 8.00 to 9.00 | > 6.30 | Cc1c(F)cccc1S(=O)(=O)Nc1ccc(F)c(Nc2ncnc3sc(-n4cnc5c(F)cccc54)nc23)c1F [Example 35] | −8 |
| 7.30 to 8.00 |  | 8.00 to 9.00 | 5.00 to 6.00 | Cc1c(Cl)cccc1S(=O)(=O)Nc1ccc(F)c(Nc2ncnc3sc(-n4cnc5c(F)cccc54)nc23)c1F [Example 36] | −13 |
| > 8.00 |  | 8.00 to 9.00 | > 6.30 | O=S(=O)(Nc1ccc(F)c(Nc2ncnc3sc(-n4cnc5ccccc54)nc23)c1F)c1ccccc1Cl [Example 37] | −11 |
| > 8.00 |  | 8.00 to 9.00 | 6.00 to 6.30 | O=S(=O)(Nc1ccc(F)c(Nc2ncnc3sc(-n4cnc5c(F)cccc54)nc23)c1F)c1ccccc1Cl [Example 38] | −6 |
| > 8.00 |  | > 9.00 | > 6.30 | Cc1c(F)cccc1S(=O)(=O)Nc1ccc(F)c(Nc2ncnc3sc(-n4nc(C(=O)N(C)CCN(C)C)c5ccccc54)nc23)c1F [Example 39] | −12 |
| > 8.00 |  | > 9.00 | > 6.30 | Cc1c(F)cccc1S(=O)(=O)Nc1ccc(F)c(Nc2ncnc3sc(-n4cc(C(=O)N5C6CCC5COC6)c5ccccc54)nc23)c1F [Example 40] | −7 |
| > 8.00 |  | > 9.00 | > 6.30 | CN(C)CCN(C)S(=O)(=O)c1cn(-c2nc3c(Nc4c(F)ccc(NS(=O)(=O)c5cccc(Cl)c5Cl)c4F)ncnc3s2)c2ccccc12 [Example 41] | 0 |
| 7.30 to 8.00 |  | < 8.00 | 6.00 to 6.30 | Cc1c(F)cccc1S(=O)(=O)Nc1ccc(F)c(Nc2ncnc3sc(-n4nc(C(=O)N5C6CCC5CN(C)C6)c5ccccc54)nc23)c1F [Example 42] | 2 |
| > 8.00 |  | > 9.00 | > 6.30 | COCCN(C)C(=O)c1cn(-c2nc3c(Nc4c(F)ccc(NS(=O)(=O)c5cccc(F)c5C)c4F)ncnc3s2)c2ccccc12 [Example 43] | 9 |
